{"source": "patent US20060293264A1", "about": "“STAT3 decoy oligonucleotides and uses therefor” (priority 2004, published 2006)", "key": {"[1]": {"tested_on": "SCCHN xenografts (1483 cells)", "experiment": "In vivo apoptosis determination by TUNEL in harvested xenografts", "set-up": "species or system athymic nude mice", "conditions": "xenografts harvested after 25 treatments; p=0.00038", "method": "In vivo apoptosis determinations. Detection and quantitation of apoptosis was performed by the TUNEL reaction, using the In Situ Cell Death Detection Kit, POD (Roche Diagnostics GmbH, Roche Applied Science, Sandhofer Strasse 116, D-68305 Mannheim, Germany). Cryostat sections were fixed in 4% paraformaldehyde in PBS for 30 min. After washing with PBS for 30 min, the sections were incubated in permeabilization solution (0.1% Triton X-100, 0.1% sodium citrate) for 2 min on ice. The sections were washed twice with PBS before the samples were incubated for 60 min at 37° C. with TUNEL reaction mixture to label DNA strand breaks with Fluorescein-dUTP. After washing three times with PBS, the samples were incubated with Converter-POD for 30 min at 37° C., washed again with PBS, and finally exposed to 0.025% 3,3′-diaminobenzidine (DAB)/0.01% H2O2 in Tris-HCl buffer (pH 7.4) for 10 min. The number of apoptotic cells per high-power field (HPF) was counted. For each treatment, five samples were evaluated, and 5-10 fields of view were quantified on each section.\nIn vivo tumor xenograft studies. Female athymic nude mice nu/nu (4-6 weeks old; 20±2 g; Harlan-Sprague-Dawley) were implanted with 1×10^6 1483 cells into the right and left flank with a 26-gauge needle/1 ml tuberculin syringe, resulting in two tumors per mouse. […]"}, "STAT1": {"target": "T1, STAT1 (Homo sapiens, UniProt P42224)", "T1 construct": "Nuclear protein extracts of PCI-15B cells, prepared according to standard methods, were used for the EMSA; endogenous in cells; host or cells: PCI-15B cells (nuclear extract)", "T1 sequence (P42224 2-750 limits assumed)": "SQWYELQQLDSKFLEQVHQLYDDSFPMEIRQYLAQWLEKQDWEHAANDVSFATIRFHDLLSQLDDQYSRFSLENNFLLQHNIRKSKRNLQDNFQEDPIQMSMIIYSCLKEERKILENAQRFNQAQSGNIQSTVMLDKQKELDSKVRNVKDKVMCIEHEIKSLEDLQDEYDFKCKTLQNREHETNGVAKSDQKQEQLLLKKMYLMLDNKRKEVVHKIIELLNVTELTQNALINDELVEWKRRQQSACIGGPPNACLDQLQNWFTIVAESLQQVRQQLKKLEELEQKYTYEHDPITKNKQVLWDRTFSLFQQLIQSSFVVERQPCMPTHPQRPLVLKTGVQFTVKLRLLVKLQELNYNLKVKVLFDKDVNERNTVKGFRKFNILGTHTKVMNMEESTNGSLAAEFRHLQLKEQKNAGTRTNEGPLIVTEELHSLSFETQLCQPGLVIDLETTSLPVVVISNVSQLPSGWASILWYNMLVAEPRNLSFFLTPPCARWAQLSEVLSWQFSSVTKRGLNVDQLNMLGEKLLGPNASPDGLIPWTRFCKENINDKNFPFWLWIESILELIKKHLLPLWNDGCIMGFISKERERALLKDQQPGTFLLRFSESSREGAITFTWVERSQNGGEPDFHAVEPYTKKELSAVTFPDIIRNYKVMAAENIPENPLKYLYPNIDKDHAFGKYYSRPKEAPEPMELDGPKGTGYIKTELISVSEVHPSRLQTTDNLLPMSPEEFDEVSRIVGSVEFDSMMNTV", "experiment": "EMSA of STAT1 binding to the STAT3 decoy, PCI-15B nuclear extracts", "conditions": "supershift", "method": "FIG. 10 depicts binding of STAT 1 to the STAT3 decoy in an electrophoretic mobility shift assay (EMSA). Nuclear protein extracts of PCI-15B cells, prepared according to standard methods, were used for the EMSA. The specificity of STAT1 or STAT3 binding to the STAT3 decoy was determined by supershifting with STAT1- or STAT3-specific antibodies, or both. The experiment has been repeated more than 3 times."}, "[2]": {"tested_on": "Egr-1 transcription recognition sequence", "experiment": "pEgr-1-Luc reporter assay in SCCHN cells", "assay_type": "cell-based", "conditions": "SCCHN cells co-transfected with 2 μg pEgr-1-Luc and 2 μg decoy, 24 hrs", "method": "STAT3 decoy-specific transcriptional repression of Egr-1(Early Growth Response -1 enhancer, pEGR-1-Luc, Stratagene Cat. No. 240130, containing three repeats of the Egr-1 transcription recognition sequence: 5′-GGGTGGGGN-3′ (SEQ ID NO: 31) was also observed. SCCHN cells were co-transfected with 2 μg pEgr-1-Luc plasmid and 2 μg of the STAT3 decoy or the control mutant decoy. At 24 hrs after transfection, luciferase activity was measured and normalized to the total amount of protein according to standard methods."}, "SCCHN cells": {"tested_on": "SCCHN cells", "experiment": "Incorporation of decoy into SCCHN cells, fluorescence labeled flow cytometry", "assay_type": "cell-based", "conditions": "SCCHN cells in vitro, previously assessed"}}, "data": [{"substance": "STAT3 decoy (sense CATTTCCCGTAAATC; antisense GATTTACGGGAAATG; phosphorothioate modified, further chemistry not given here; listed as Homo sapiens)", "values": [{"measurement": "increase in apoptosis (TUNEL) compared with mutant control decoy", "setting": "[1]", "result": 3.25, "unit": "fold"}, {"measurement": "binding to STAT1", "setting": "STAT1", "result": "able to bind"}, {"measurement": "transcriptional repression of Egr-1 enhancer reporter", "setting": "[2]", "result": "observed"}, {"measurement": "cells in which decoy was detected", "setting": "SCCHN cells", "result": "> 90", "unit": "%"}]}]}
